According to patent US8772029B2, “Modulation of oocyte meiotic progression and oocyte activation” (Northwestern University, priority 2011, dated 2014):

How the values were obtained:
oocytes = conditions: literature (Kim et al 2010, Bernhardt et al 2011); cited from earlier work
Emi2 = biological target: T1, Emi2 (Mus musculus, UniProt Q8CDI2); experiment: MI arrest induced by Emi2 cRNA injected into GV oocytes, IVM with or without TPEN; type: cell-based; conditions: IVM medium with 10 μM TPEN 14 h
T1 construct: expressed in transfected cells; host or cells: mouse oocytes microinjected with in vitro transcribed cRNA (pIVT vector)
T1 sequence (Q8CDI2 1-640): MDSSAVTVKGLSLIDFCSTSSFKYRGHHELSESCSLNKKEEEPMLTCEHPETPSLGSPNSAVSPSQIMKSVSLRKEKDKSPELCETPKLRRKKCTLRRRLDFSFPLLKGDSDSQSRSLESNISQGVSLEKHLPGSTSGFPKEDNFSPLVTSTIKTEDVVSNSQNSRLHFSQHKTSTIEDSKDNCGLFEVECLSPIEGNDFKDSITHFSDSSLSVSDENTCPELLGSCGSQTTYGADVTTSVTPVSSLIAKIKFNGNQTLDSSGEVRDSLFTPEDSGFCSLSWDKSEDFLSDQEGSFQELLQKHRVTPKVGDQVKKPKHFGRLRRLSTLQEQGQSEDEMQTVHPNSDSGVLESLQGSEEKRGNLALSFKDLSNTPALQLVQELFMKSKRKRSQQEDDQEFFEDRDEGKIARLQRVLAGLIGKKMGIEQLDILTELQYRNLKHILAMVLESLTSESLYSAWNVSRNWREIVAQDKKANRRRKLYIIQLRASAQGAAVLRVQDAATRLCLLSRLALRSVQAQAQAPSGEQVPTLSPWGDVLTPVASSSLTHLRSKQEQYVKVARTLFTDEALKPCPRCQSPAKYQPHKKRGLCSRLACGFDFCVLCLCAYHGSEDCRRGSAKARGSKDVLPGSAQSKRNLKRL
Method: Oocytes were denuded of cumulus cells and fixed in a microtubule stabilizing buffer (Ibanez et al., 2005) containing 2% formaldehyde and 1% Triton X-100 for 30 min at 37° C. Oocytes were washed and blocked in PBS containing 0.1M glycine, 3mg/mL BSA, 0.01% Tween 20, and 0.01% sodium azide for at least 1 h and were stored in blocking solution at 4° C. for up to 2 weeks. Oocytes were incubated with anti-tubulin antibody (1:100) for 1 h at 37C. followed by three washes in blocking solution. They were then incubated for 1 h in AlexaFluor-488 conjugated anti-mouse secondary antibody (5μg/mL) and rhodamine-phalloidin (2U/mL), washed three additional times, and mounted in VECTASHIELD with DAPI. Microscopy was performed using a Leica SP5 inverted laser-scanning confocal microscope with a 63x oil immersion objective (Leica Microsystems, Heidelberg, Germany). Images were processed using LAS AF software (Leica Microsystems).
Microinjection was performed essentially as previously described (Bernhardt et al., 2010). GV intact oocytes were collected and manually denuded of cumulus cells in L-15/FBS containing 0.2 mM IBMX, then transferred to drops of L-15 medium containing 0.05% (w/v) polyvinyl alcohol (PVA) and 0.5% (v/v) penicillin-streptomycin (Invitrogen) under light mineral oil on a heated stage for injection. […]

MPF activity = experiment: Histone H1 kinase assay on single oocytes/eggs (MPF activity); type: cell-based, mouse
Method: Histone H1 and myelin basic protein (MBP) dual kinase assays were performed as previously described (Svoboda et al., 2000). Dried gels were exposed to Kodak BIOMAX MR films for 12 to 72 hours at −80° C. using Kodak intensifying screens; films were developed, scanned, and analyzed using ImageJ software. Assays were performed on single oocytes, and densitometric analysis is expressed relative to levels in control eggs.

Compound: c1ccc(CN(CCN(Cc2ccccn2)Cc2ccccn2)Cc2ccccn2)nc1 [TPEN, N,N,N′,N′-tetrakis(2-pyridylmethyl)ethylenediamine]
- meiotic arrest on TPEN treatment during the MI-MII transition (oocytes): causes meiotic arrest at telophase-I
- oocytes arrested at MI (Emi2): 44%
- MPF activity (histone H1 kinase) in MII eggs (MPF activity; in vivo ovulated MII eggs, KSOM with 10 μM TPEN, 1 to 8 hours, seen as soon as 1 hour): decline
- MPF activity (histone H1 kinase) (MPF activity; oocytes cultured with 10 μM TPEN during the MI-MII transition (7.5 h control, 6.5 h TPEN)): low
